Source: article PMC4854315, “Discovery of a novel allosteric inhibitor-binding site in ERK5: comparison with the canonical kinase hinge ATP-binding site” (Acta Crystallographica. Section D, Structural Biology, 2016)

Assays:
Assay in all cases: Z'-LYTE kinase panel
Assay type in all cases: biochemical
MERTK (cMER) = biological target: T1, MERTK (cMER) (Homo sapiens, UniProt Q12866)
T1 construct: purchased ThermoFisher (SelectScreen, Z'-LYTE)
T1 sequence (Q12866 21-999): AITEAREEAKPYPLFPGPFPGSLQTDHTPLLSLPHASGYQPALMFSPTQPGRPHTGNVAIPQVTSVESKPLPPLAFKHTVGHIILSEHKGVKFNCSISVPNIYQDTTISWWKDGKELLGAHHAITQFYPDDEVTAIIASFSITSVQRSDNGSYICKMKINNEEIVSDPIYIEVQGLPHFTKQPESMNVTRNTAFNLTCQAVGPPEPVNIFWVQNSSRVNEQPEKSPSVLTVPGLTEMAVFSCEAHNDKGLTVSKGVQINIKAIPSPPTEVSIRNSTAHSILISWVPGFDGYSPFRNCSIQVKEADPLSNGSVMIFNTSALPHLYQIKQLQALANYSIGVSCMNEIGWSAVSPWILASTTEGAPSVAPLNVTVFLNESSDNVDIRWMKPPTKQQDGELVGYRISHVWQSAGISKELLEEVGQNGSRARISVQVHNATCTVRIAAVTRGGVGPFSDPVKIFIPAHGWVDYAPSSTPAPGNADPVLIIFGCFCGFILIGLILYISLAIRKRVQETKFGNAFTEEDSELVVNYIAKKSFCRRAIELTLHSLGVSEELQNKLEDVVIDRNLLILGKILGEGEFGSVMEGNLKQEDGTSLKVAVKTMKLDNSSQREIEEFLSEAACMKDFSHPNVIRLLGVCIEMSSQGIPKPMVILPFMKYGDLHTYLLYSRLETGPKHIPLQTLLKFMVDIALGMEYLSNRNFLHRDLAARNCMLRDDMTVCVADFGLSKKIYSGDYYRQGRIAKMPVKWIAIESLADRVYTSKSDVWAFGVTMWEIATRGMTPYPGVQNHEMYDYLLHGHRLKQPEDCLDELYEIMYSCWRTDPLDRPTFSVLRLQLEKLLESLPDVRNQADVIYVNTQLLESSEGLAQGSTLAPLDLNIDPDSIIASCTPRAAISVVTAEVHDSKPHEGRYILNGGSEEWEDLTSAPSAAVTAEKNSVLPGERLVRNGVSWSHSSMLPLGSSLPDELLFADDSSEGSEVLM
Method in brief: (§1)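 Percent inhibition measured at 10 µM compound using the standard Z′-LYTE protocol, as part of a 225-kinase standard panel screen.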

MAP4K5 (KHS1) = biological target: T2, MAP4K5 (KHS1) (Homo sapiens, UniProt Q9Y4K4)
T2 construct: purchased ThermoFisher (SelectScreen, Z'-LYTE)
T2 sequence (Q9Y4K4 whole entry): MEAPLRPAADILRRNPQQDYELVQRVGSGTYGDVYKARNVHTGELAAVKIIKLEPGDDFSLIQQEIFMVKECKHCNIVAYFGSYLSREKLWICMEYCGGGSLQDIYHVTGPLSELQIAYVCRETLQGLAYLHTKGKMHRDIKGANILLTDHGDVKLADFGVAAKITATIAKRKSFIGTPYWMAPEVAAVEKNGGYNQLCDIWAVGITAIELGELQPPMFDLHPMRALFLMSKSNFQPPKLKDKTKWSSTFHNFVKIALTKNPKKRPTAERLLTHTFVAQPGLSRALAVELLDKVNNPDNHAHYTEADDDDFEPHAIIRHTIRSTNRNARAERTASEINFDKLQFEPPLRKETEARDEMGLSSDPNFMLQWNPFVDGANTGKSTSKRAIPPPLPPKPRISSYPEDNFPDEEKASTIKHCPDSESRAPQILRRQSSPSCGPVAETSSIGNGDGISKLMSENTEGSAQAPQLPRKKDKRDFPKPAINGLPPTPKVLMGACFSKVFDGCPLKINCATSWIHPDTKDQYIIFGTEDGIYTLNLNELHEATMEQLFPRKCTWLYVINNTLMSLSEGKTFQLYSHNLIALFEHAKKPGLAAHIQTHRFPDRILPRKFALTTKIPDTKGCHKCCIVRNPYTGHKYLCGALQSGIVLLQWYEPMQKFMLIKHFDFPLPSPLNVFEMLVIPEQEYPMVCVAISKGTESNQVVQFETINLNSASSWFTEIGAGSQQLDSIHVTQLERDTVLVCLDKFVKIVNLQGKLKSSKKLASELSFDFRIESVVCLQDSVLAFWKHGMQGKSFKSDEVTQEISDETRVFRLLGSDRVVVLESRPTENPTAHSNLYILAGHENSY
Method in brief: as §1

MAPKAPK5 (PRAK) = biological target: T3, MAPKAPK5 (PRAK) (Homo sapiens, UniProt Q8IW41)
T3 construct: purchased ThermoFisher (SelectScreen, Z'-LYTE)
T3 sequence (Q8IW41 1-473): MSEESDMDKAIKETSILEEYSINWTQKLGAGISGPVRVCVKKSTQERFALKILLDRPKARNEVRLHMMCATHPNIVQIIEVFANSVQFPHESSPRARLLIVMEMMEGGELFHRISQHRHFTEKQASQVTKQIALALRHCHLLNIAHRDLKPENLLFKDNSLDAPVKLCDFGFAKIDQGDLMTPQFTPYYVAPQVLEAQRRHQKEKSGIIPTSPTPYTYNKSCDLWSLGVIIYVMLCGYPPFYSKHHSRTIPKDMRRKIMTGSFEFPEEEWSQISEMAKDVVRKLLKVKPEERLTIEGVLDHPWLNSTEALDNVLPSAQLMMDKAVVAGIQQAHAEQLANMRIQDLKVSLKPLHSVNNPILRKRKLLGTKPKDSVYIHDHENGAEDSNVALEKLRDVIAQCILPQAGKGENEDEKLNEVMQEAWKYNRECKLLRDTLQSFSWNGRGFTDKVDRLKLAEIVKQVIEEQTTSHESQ
Method in brief: as §1

GSK3A (GSK3 alpha) = biological target: T4, GSK3A (GSK3 alpha) (Homo sapiens, UniProt P49840); details: 10 µM compound, ATP Km app
T4 construct: purchased ThermoFisher (SelectScreen, Z'-LYTE)
T4 sequence (P49840 whole entry): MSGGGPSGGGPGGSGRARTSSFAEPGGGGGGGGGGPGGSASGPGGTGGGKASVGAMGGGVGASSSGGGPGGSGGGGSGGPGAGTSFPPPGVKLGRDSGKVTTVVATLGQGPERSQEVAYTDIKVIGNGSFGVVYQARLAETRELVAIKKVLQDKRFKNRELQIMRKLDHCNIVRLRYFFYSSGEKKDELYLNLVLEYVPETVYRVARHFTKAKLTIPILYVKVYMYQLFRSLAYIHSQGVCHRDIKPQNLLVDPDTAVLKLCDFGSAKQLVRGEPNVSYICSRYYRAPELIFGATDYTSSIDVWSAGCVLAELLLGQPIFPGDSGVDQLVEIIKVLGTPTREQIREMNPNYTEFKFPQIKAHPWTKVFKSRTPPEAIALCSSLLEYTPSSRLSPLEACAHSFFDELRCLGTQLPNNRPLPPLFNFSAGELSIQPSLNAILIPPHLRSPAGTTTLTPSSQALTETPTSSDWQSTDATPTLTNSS
Method in brief: as §1

STK23 (MSSK1) = biological target: T5, STK23 (MSSK1) (Homo sapiens, UniProt Q9UPE1)
T5 construct: purchased ThermoFisher (SelectScreen, Z'-LYTE)
T5 sequence (Q9UPE1 whole entry): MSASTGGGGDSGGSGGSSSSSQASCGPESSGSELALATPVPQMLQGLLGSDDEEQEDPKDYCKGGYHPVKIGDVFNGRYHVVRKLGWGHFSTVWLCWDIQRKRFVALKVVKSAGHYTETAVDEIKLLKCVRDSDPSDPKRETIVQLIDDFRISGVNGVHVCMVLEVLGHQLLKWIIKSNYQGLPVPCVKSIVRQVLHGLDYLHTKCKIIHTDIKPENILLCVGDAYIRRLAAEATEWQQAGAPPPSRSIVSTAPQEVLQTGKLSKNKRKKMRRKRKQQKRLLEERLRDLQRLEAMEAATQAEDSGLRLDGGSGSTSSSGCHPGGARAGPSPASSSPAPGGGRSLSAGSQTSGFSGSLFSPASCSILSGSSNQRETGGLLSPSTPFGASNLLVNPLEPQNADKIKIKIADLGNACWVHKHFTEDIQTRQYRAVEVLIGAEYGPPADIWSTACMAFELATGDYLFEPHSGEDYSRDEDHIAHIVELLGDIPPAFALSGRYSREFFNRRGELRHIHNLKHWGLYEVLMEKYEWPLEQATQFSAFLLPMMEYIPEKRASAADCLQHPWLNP
Method in brief: as §1

FGFR2 = biological target: T6, FGFR2 (Homo sapiens, UniProt P21802)
T6 construct: purchased ThermoFisher (SelectScreen, Z'-LYTE)
T6 sequence (P21802 22-821): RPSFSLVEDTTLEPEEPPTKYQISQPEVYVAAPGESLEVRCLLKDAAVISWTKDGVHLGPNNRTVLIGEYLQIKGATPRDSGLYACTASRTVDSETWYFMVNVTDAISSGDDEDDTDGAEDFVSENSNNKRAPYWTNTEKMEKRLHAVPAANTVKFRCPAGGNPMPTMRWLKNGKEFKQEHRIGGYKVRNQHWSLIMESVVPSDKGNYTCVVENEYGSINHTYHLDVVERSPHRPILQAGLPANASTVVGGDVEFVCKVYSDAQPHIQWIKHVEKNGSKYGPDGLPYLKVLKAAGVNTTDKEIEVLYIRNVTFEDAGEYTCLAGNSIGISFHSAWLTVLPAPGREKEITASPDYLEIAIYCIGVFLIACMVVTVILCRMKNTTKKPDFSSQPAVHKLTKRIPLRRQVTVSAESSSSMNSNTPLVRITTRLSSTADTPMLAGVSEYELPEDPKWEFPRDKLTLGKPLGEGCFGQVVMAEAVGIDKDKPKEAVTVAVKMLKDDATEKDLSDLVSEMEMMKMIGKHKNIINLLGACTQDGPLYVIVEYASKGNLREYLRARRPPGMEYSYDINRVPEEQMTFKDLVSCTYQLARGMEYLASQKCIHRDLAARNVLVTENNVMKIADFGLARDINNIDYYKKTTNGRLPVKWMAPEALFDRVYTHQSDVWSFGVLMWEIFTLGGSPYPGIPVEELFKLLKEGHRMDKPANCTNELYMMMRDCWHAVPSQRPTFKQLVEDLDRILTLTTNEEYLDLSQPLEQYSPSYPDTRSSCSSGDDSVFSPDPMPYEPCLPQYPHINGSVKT
Method in brief: as §1

BRSK1 (SAD1) = biological target: T7, BRSK1 (SAD1) (Homo sapiens, UniProt Q8TDC3)
T7 construct: purchased ThermoFisher (SelectScreen, Z'-LYTE)
T7 sequence (Q8TDC3 1-778): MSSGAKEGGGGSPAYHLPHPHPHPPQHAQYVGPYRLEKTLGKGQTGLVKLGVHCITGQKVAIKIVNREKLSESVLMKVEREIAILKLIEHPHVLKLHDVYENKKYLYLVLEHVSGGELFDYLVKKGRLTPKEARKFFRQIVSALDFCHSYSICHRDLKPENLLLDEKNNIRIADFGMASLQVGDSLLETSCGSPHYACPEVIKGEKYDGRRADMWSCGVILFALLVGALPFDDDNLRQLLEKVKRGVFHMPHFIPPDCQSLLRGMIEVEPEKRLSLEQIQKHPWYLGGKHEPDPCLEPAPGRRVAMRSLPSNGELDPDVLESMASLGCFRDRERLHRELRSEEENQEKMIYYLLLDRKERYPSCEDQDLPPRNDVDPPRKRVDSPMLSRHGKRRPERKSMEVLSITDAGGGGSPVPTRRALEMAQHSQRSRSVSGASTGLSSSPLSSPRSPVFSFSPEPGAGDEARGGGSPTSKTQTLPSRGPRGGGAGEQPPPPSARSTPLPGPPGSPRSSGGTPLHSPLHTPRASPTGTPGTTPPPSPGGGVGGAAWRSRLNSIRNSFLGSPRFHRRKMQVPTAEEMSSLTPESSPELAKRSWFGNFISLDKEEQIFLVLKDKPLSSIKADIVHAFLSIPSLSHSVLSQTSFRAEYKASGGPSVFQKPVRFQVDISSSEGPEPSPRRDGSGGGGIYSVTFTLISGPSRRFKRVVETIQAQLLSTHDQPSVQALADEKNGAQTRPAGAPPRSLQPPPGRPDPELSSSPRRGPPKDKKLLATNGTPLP
Method in brief: as §1

AURKC (Aurora C) = biological target: T8, AURKC (Aurora C) (Homo sapiens, UniProt Q9UQB9)
T8 construct: purchased ThermoFisher (SelectScreen, Z'-LYTE)
T8 sequence (Q9UQB9 1-309): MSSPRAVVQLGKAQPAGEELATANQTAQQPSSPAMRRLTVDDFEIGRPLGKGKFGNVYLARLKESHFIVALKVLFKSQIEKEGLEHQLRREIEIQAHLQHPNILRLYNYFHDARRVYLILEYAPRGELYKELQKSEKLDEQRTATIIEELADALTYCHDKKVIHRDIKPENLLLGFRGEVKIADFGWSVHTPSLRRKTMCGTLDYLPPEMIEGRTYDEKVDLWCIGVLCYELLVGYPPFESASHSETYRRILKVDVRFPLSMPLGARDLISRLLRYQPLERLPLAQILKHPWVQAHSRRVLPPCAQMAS
Method in brief: as §1

Compound | inhibition at 10 µM (MERTK (cMER)) | inhibition at 10 µM (MAP4K5 (KHS1)) | inhibition at 10 µM (MAPKAPK5 (PRAK)) | inhibition at 10 µM (GSK3A (GSK3 alpha)) | inhibition at 10 µM (STK23 (MSSK1)) | inhibition at 10 µM (FGFR2) | inhibition at 10 µM (BRSK1 (SAD1)) | inhibition at 10 µM (AURKC (Aurora C)) | GSK3A (GSK3 alpha) % Inhibition (GSK3A (GSK3 alpha); listed as SN1109056190, 10 µM) | MERTK (cMER) % Inhibition (MERTK (cMER); 10 µM compound, ATP Km app) | MAP4K5 (KHS1) % Inhibition (MAP4K5 (KHS1); 10 µM compound, ATP Km app) | MAPKAPK5 (PRAK) % Inhibition (MAPKAPK5 (PRAK); 10 µM compound, ATP Km app) | GSK3A (GSK3 alpha) % Inhibition (GSK3A (GSK3 alpha)) | STK23 (MSSK1) % Inhibition (STK23 (MSSK1); 10 µM compound, ATP Km app) | FGFR2 % Inhibition (FGFR2; 10 µM compound, ATP Km app) | BRSK1 (SAD1) % Inhibition (BRSK1 (SAD1); 10 µM compound, ATP Km app) | AURKC (Aurora C) % Inhibition (AURKC (Aurora C); 10 µM compound, ATP Km app)
Cc1ncc(-c2nc(Nc3ccc(C(=O)NCCN4CCCCC4)cc3)ncc2F)n1C(C)C [Compound 3] | 99% | 97% | 45% | 98% | 15% | 88% | 91% | 89% |  |  |  |  |  |  |  |  | 
Cc1cc(Nc2nc(N)nn2C(=O)NC(C)C)ccc1Cl [Compound 5] | 43% | 65% | -3.49% | > 80% | -2.48% | 53% | 35% | 54% | 82% |  |  |  |  |  |  |  | 
XMD8-92 [Compound 2, reference compound] |  |  |  |  |  |  |  |  |  | 0.252% | 85% | 11% | 35% | 15% | 33% | 80% | 34%
